The values below come from PMC11356900, “Synthesis, Structural Properties and Biological Activities of Novel Hydrazones of 2-, 3-, 4-Iodobenzoic Acid” (Molecules, 2024).

What is called MBC is the smallest concentration meeting the test's criterion for killing. For orientation: MIC means the smallest concentration in the dilution series that meets the test's criterion for growth inhibition.

Converted amounts (≈) assume the structure as drawn. Where two headings read alike, the source gives them in different places.

The subject of test [1] is Staphylococcus epidermidis ATCC 12228. Description: Broth microdilution MIC/MBC. The following applies: ATCC12228. On the technique in general: Broth dilution looks for growth in wells or tubes with falling amounts of substance.
Test [2] relates to Staphylococcus aureus ATCC 43300. Description: Broth microdilution MIC/MBC. Conditions: ATCC43300 / MRSA.
A further test concerns Gram-positive bacteria. Briefly: Broth microdilution, summary over reference Gram-positive bacteria. Format: cell-based. Conditions: for antibacterial activity in words: reference Gram-positive bacteria / studied bacteria. An outline of the steps:
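Two-fold dilutions in RPMI 1640 with MOPS (fungi) or Mueller-Hinton broth (bacteria), final 1000–0.488 µg/mL, inoculum 0.5 McFarland in 0.85% NaCl. MIC read spectrophotometrically; MBC/MFC as lowest concentration with no visible growth after well contents were spotted onto agar.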

Test [3] deals with Staphylococcus aureus ATCC 29213. Briefly: Broth microdilution MIC/MBC. Conditions: ATCC29213.
Setting [4] is: range over the reference Gram-positive bacteria.
Setting [5] is: range over the reference Gram-positive bacteria, read-out: MBC.
The mark [6] stands for this setting: range over the reference Gram-positive bacteria, read-out: MIC.

`O=C(N/N=C/c1cc(Cl)cc(I)c1O)c1cccc(I)c1` [Compound 20, N-[(5-chloro-2-hydroxy-3-iodophenyl)methylidene]-3-iodobenzohydrazide]: the MBC is 7.81 µg/mL (≈ 14.8 µM) in test [1], 7.81 µg/mL (≈ 14.8 µM) in test [2], 3.91 to 62.5 µg/mL (≈ 7.43 to 119 µM) against Gram-positive bacteria and 3.91 µg/mL (≈ 7.43 µM) in test [3]. Besides, the minimum inhibitory concentration (MIC) was 1.95 µg/mL (≈ 3.7 µM) in test [1], 3.91 µg/mL (≈ 7.43 µM) in test [2], 1.95 to 7.81 µg/mL (≈ 3.7 to 14.8 µM) in the test on Gram-positive bacteria and 3.91 µg/mL (≈ 7.43 µM) in test [3]. Further, the MBC/MIC in the test with Gram-positive bacteria (setting [4]) is recorded as 1–4. Moreover, in the test on Gram-positive bacteria, the “antibacterial activity in words” value is listed as “very strong (very strong bioactivity as a MIC < 10 µg/mL)”.
For `O=C(N/N=C/c1cc(I)cc(I)c1O)c1ccccc1I` [Compound 14, N-[(3,5-diiodo-2-hydroxyphenyl)methylidene]-2-iodobenzohydrazide], the MBC was 250 µg/mL (≈ 405 µM) in test [1], 1000 µg/mL (≈ 1620 µM) in test [2], 125 to 1000 µg/mL (≈ 202 to 1620 µM) in the test with Gram-positive bacteria (setting [5]) and 500 µg/mL (≈ 809 µM) in test [3]. Further, the minimal inhibitory concentration (MIC) was 125 µg/mL (≈ 202 µM) in test [1], 250 µg/mL (≈ 405 µM) in test [2], 62.5 to 500 µg/mL (≈ 101 to 809 µM) in the test on Gram-positive bacteria (setting [6]) and 125 µg/mL (≈ 202 µM) in test [3]. In addition, the MBC/MIC against Gram-positive bacteria (setting [4]) is 1–4. Also, the “antibacterial activity in words” value in the test on Gram-positive bacteria is on record as “good or moderate”.
With `O=C(N/N=C/c1cc(Cl)cc(I)c1O)c1ccc(I)cc1` [Compound 27, N-[(5-chloro-2-hydroxy-3-iodophenyl)methylidene]-4-iodobenzohydrazide], the minimum bactericidal concentration (MBC) in test [1] is 31.2 µg/mL (≈ 59.4 µM); in test [2] it was 250 µg/mL (≈ 475 µM); with Gram-positive bacteria (setting [5]), 31.2 to 500 µg/mL (≈ 59.4 to 950 µM); in test [3] it was 125 µg/mL (≈ 237 µM). Moreover, the minimal inhibitory concentration (MIC) is 31.2 µg/mL (≈ 59.4 µM) in test [1], 62.5 µg/mL (≈ 119 µM) in test [2], 31.2 to 125 µg/mL (≈ 59.4 to 237 µM) with Gram-positive bacteria (setting [6]) and 62.5 µg/mL (≈ 119 µM) in test [3]. The MBC/MIC with Gram-positive bacteria (setting [4]) is recorded as 1–4. In the test on Gram-positive bacteria, the “antibacterial activity in words” value is reported as “good (good bioactivity as a MIC in the range 26 – 125 µg/mL)”.
`O=C(N/N=C/c1cc(Br)cc(Br)c1O)c1cccc(I)c1` [Compound 21, N-[(3,5-dibromo-2-hydroxyphenyl)methylidene]-3-iodobenzohydrazide]: the MBC in test [1] was 31.2 µg/mL (≈ 59.6 µM); in test [2], 62.5 µg/mL (≈ 119 µM); against Gram-positive bacteria, 3.91 to 62.5 µg/mL (≈ 7.46 to 119 µM); in test [3] it was 15.6 µg/mL (≈ 29.8 µM). Further, the minimum inhibitory concentration (MIC) was 7.81 µg/mL (≈ 14.9 µM) in test [1], 15.6 µg/mL (≈ 29.8 µM) in test [2], 3.91 to 15.6 µg/mL (≈ 7.46 to 29.8 µM) against Gram-positive bacteria and 15.6 µg/mL (≈ 29.8 µM) in test [3]. The MBC/MIC in the test on Gram-positive bacteria (setting [4]) was 1–4. Further, in the test with Gram-positive bacteria, the “antibacterial activity in words” value is listed as “strong or very strong”.
